Assay results as given in patent US20230263822A1, “MODULATION OF FACTOR 11 EXPRESSION” (Ionis Pharmaceuticals, Inc., priority 2008, published 2023).
pIC50: −log10 of the molar value.

Legend:
[1] = parameters: species or system Sprague-Dawley rats; details: rat, in vivo
Protocol: Three days after the last dose, the rats were sacrificed and livers and kidneys were collected for analysis.
The concentration of the full-length oligonucleotide as well as the total oligonucleotide concentration (including the degraded form) was measured. The method used is a modification of previously published methods (Leeds et al., 1996; Geary et al., 1999) which consist of a phenol-chloroform (liquid-liquid) extraction followed by a solid phase extraction. An internal standard (ISIS 355868, a 27-mer 2′-O-methoxyethyl modified phosphorothioate oligonucleotide, […], designated herein as SEQ ID NO: 270) was added prior to extraction. […] The results are presented in Tables 77 and 78, expressed as μg/g liver or kidney tissue. Half-lives were then calculated using WinNonlin software ([…]).

human Factor 11 mRNA [2] = assay: Dose-dependent inhibition of human Factor 11 in HepG2 cells, electroporation 625-20,000 nM (Example 5); format: cell-based; details: ~16 hours
Protocol: The gapmers were also transfected via electroporation and their dose dependent inhibition of human Factor 11 mRNA was measured. Cells were plated at a density of 20,000 cells per well and transfected via electroporation with 625 nM, 1250 nM, 2500 nM, 5,000 nM, 10,000 nM, and 20,000 nM concentrations of antisense oligonucleotide, as specified in Table 12. After a treatment period of approximately 16 hours, RNA was isolated from the cells and human Factor 11 mRNA levels were measured by quantitative real-time PCR. Human Factor 11 primer probe set RTS 2966 was used to measure mRNA levels. Factor 11 mRNA levels were adjusted according to total RNA content, as measured by RIBOGREEN. Results are presented as percent inhibition of human Factor 11, relative to untreated control cells.

human Factor 11 mRNA [3] = assay: Dose-dependent inhibition of human Factor 11 in HepG2 cells, electroporation 0.7-20 uM (Example 4); format: cell-based; details: for percent inhibition of Factor 11 at 0.7 μM / percent inhibition of Factor 11 at 2.2 μM / percent inhibition of Factor 11 at 6.7 μM / percent inhibition of Factor 11 at 20 μM: relative to untreated control cells
Method in brief: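 HepG2 cells electroporated with antisense gapmers at 0.7, 2.2, 6.7 and 20 μM, treated ~16 h. Factor 11 mRNA quantified by qRT-PCR (primer probe set RTS 2966), normalised to RIBOGREEN total RNA; expressed as percent inhibition versus untreated control cells.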

[4] = parameters: species or system CD1 mice; details: mouse, in vivo
Protocol: Five mice from each group were sacrificed 3 days, 28 days and 56 days following the final dose. Livers were harvested for analysis.
The concentration of the full-length oligonucleotide as well as the total oligonucleotide concentration (including the degraded form) was measured. The method used is a modification of previously published methods (Leeds et al., 1996; Geary et al., 1999) which consist of a phenol-chloroform (liquid-liquid) extraction followed by a solid phase extraction. An internal standard (ISIS 355868, a 27-mer 2′-O-methoxyethyl modified phosphorothioate oligonucleotide, […], designated herein as SEQ ID NO: 270) was added prior to extraction. […] Half-lives were then calculated using WinNonlin software ([…]).
The results are presented in Tables 68 and 69, expressed as μg/g liver tissue.

[5] = Tolerability in Sprague-Dawley rats: body weight and organ weight (Example 35); format: in vivo; details: 50 mg/kg s.c. twice per week for 6 weeks; for Percent change: Body weight: percent change over the weights at the start of the study; for Percent change in organ weight: Kidney / Percent change in organ weight: Liver / Percent change in organ weight: Spleen: vs saline control, normalized to body weight
Source text: Urine samples were taken before the start of treatment.
The body weights are presented in Table 71 and are expressed as a percent change over the weights taken at the start of the study.

Substance | Half-life in the liver and kidney [1] | percent inhibition of human Factor 11 mRNA relative to untreated control cells (human Factor 11 mRNA [2]; 625 nM) | percent inhibition of human Factor 11 mRNA relative to untreated control cells (human Factor 11 mRNA [2]; 1250 nM) | percent inhibition of human Factor 11 mRNA relative to untreated control cells (human Factor 11 mRNA [2]; 2500 nM) | percent inhibition of human Factor 11 mRNA relative to untreated control cells (human Factor 11 mRNA [2]; 5000 nM) | percent inhibition of human Factor 11 mRNA relative to untreated control cells (human Factor 11 mRNA [2]; 10000 nM) | percent inhibition of human Factor 11 mRNA relative to untreated control cells (human Factor 11 mRNA [2]; 20000 nM) | pIC50 (human Factor 11 mRNA [3]) | percent inhibition of Factor 11 at 0.7 μM (human Factor 11 mRNA [3]) | percent inhibition of Factor 11 at 2.2 μM (human Factor 11 mRNA [3]) | percent inhibition of Factor 11 at 6.7 μM (human Factor 11 mRNA [3]) | percent inhibition of Factor 11 at 20 μM (human Factor 11 mRNA [3]) | Half-Life in the liver [4] | Percent change: Body weight [5] | Percent change in organ weight: Kidney [5] | Percent change in organ weight: Liver [5] | Percent change in organ weight: Spleen [5]
416825 (antisense GCCCTTCATGTCTAGGTCCA; 5-10-5 gapmer, further chemistry not given here) [compound 416825] | 16 days | 69% | 84% | 91% | 94% | 96% | 97% | 5.89 | 27% | 74% | 92% | 98% | 16 days | −18% | +25% | +20% | +245%
416826 (antisense ATGCCCTTCATGTCTAGGTC; 5-10-5 gapmer, further chemistry not given here) [compound 416826] | 13 days | 67% | 82% | 89% | 92% | 95% | 97% | 5.49 | 2% | 47% | 86% | 82% | 13 days | −40% | +44% | +81% | +537%
416838 (antisense GCAACCGGGATGATGAGTGC; 5-10-5 gapmer, further chemistry not given here) [compound 416838] | 13 days | 66% | 79% | 87% | 90% | 93% | 96% | 5.29 | 5% | 30% | 55% | 83% | 13 days | −23% | −0.5% | +8% | +212%
416864 (antisense GGCAGCGGACGGCATTGGTG; 5-10-5 gapmer, further chemistry not given here) [compound 416864] | 13 days | 45% | 74% | 84% | 87% | 92% | 94% | 5.85 | 32% | 65% | 78% | 90% | 13 days | −24% | +16% | +16% | +204%
